{
  "source": "the supplement of paper PMC11208160",
  "data": [
    {"test": "recombinant barcode read abundance after kanamycin selection (control-corrected) (log10(CPM+1)); higher = more efficient recombination; sequences stand for … in AGTGCAGAGAAAATCGGCCAGTTTTCTCTGCCTGCAGTCCGCATGCCGT…ATTTATGCAGCGGACTGCCTTTCTCCCAAAGTGATAAACCGGACAGTATCATGGACCGGTTTTCCCGGTAATCCGTATTTGCAAGGTTGGTTTCACT; site = the 11-nt target", "method_in_brief": "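Each value is log10(CPM+1). It describes recombination efficiency, taken as averaged, control-corrected counts per million of barcodes at recombinant junctions. The pooled E. coli library paired targets with IS621 bridge RNA target-binding loops, was co-electroporated with a donor plasmid, and was plated twice on chloramphenicol/ampicillin LB agar (control) and twice on chloramphenicol/ampicillin/kanamycin containing 0.1 mM IPTG.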", "values": [
      {"sequence": "AGGCGGTTCTGGGTTCTAACCTGTTGCTTGA [AGGCGGTCTAA_LTGcore_TC_RTGcore_TC] (site AGGCGGTCTAA) (LTG core: TC, RTG core: TC)", "recombinant barcode read abundance (log10)": 0.191},
      {"sequence": "AGGCGGTTTTGGGTTCTAACCTGTTGCTTAG [AGGCGGTCTAA_LTGcore_TT_RTGcore_CT] (site AGGCGGTCTAA) (LTG core: TT, RTG core: CT)", "recombinant barcode read abundance (log10)": 0.104},
      {"sequence": "AGTCTTAACTGGGTTCTAACCTGTTGCCAAG [AGTCTTACTTG_LTGcore_AC_RTGcore_CT] (site AGTCTTACTTG) (LTG core: AC, RTG core: CT)", "recombinant barcode read abundance (log10)": 0.111},
      {"sequence": "AGTCTTAACTGGGTTCTAACCTGTTGCCAGT [AGTCTTACTTG_LTGcore_AC_RTGcore_AC] (site AGTCTTACTTG) (LTG core: AC, RTG core: AC)", "recombinant barcode read abundance (log10)": 0.129},
      {"sequence": "AGTCTTAAGTGGGTTCTAACCTGTTGCCACT [AGTCTTACTTG_LTGcore_AG_RTGcore_AG] (site AGTCTTACTTG) (LTG core: AG, RTG core: AG)", "recombinant barcode read abundance (log10)": 0.0305},
      {"sequence": "AGTCTTACCTGGGTTCTAACCTGTTGCCAAG [AGTCTTACTTG_LTGcore_CC_RTGcore_CT] (site AGTCTTACTTG) (LTG core: CC, RTG core: CT)", "recombinant barcode read abundance (log10)": 0.0498},
      {"sequence": "AGTCTTACTTGGGTTCTAACCTGTTGCCATG [AGTCTTACTTG_LTGcore_CT_RTGcore_CA] (site AGTCTTACTTG) (LTG core: CT, RTG core: CA)", "recombinant barcode read abundance (log10)": 0.0163},
      {"sequence": "AGTCTTAGATGGGTTCTAACCTGTTGCCAAG [AGTCTTACTTG_LTGcore_GA_RTGcore_CT] (site AGTCTTACTTG) (LTG core: GA, RTG core: CT)", "recombinant barcode read abundance (log10)": 0.23},
      {"sequence": "AGTCTTAGATGGGTTCTAACCTGTTGCCATC [AGTCTTACTTG_LTGcore_GA_RTGcore_GA] (site AGTCTTACTTG) (LTG core: GA, RTG core: GA)", "recombinant barcode read abundance (log10)": 0.0257},
      {"sequence": "AGTCTTAGCTGGGTTCTAACCTGTTGCCAAG [AGTCTTACTTG_LTGcore_GC_RTGcore_CT] (site AGTCTTACTTG) (LTG core: GC, RTG core: CT)", "recombinant barcode read abundance (log10)": 0.0805},
      {"sequence": "AGTCTTAGGTGGGTTCTAACCTGTTGCCAAG [AGTCTTACTTG_LTGcore_GG_RTGcore_CT] (site AGTCTTACTTG) (LTG core: GG, RTG core: CT)", "recombinant barcode read abundance (log10)": 0},
      {"sequence": "AGTCTTAGTTGGGTTCTAACCTGTTGCCAAG [AGTCTTACTTG_LTGcore_GT_RTGcore_CT] (site AGTCTTACTTG) (LTG core: GT, RTG core: CT)", "recombinant barcode read abundance (log10)": 0.0538},
      {"sequence": "AGTCTTATCTGGGTTCTAACCTGTTGCCAAG [AGTCTTACTTG_LTGcore_TC_RTGcore_CT] (site AGTCTTACTTG) (LTG core: TC, RTG core: CT)", "recombinant barcode read abundance (log10)": 0.0237},
      {"sequence": "ATGCTTTAATGGGTTCTAACCTGTTGCCTTT [ATGCTTTCTAG_LTGcore_AA_RTGcore_AA] (site ATGCTTTCTAG) (LTG core: AA, RTG core: AA)", "recombinant barcode read abundance (log10)": 0.125},
      {"sequence": "ATGCTTTACTGGGTTCTAACCTGTTGCCTGT [ATGCTTTCTAG_LTGcore_AC_RTGcore_AC] (site ATGCTTTCTAG) (LTG core: AC, RTG core: AC)", "recombinant barcode read abundance (log10)": 0.0458},
      {"sequence": "ATGCTTTCTTGGGTTCTAACCTGTTGCCTAA [ATGCTTTCTAG_LTGcore_CT_RTGcore_TT] (site ATGCTTTCTAG) (LTG core: CT, RTG core: TT)", "recombinant barcode read abundance (log10)": 0.322},
      {"sequence": "ATGCTTTCTTGGGTTCTAACCTGTTGCCTCA [ATGCTTTCTAG_LTGcore_CT_RTGcore_TG] (site ATGCTTTCTAG) (LTG core: CT, RTG core: TG)", "recombinant barcode read abundance (log10)": 0.153},
      {"sequence": "ATGCTTTCTTGGGTTCTAACCTGTTGCCTCC [ATGCTTTCTAG_LTGcore_CT_RTGcore_GG] (site ATGCTTTCTAG) (LTG core: CT, RTG core: GG)", "recombinant barcode read abundance (log10)": 0.127},
      {"sequence": "ATGCTTTCTTGGGTTCTAACCTGTTGCCTGG [ATGCTTTCTAG_LTGcore_CT_RTGcore_CC] (site ATGCTTTCTAG) (LTG core: CT, RTG core: CC)", "recombinant barcode read abundance (log10)": 0.57},
      {"sequence": "ATGCTTTTGTGGGTTCTAACCTGTTGCCTCA [ATGCTTTCTAG_LTGcore_TG_RTGcore_TG] (site ATGCTTTCTAG) (LTG core: TG, RTG core: TG)", "recombinant barcode read abundance (log10)": 0.313},
      {"sequence": "ATGTCCCAATGGGTTCTAACCTGTTGCTCTT [ATGTCCCCTGA_LTGcore_AA_RTGcore_AA] (site ATGTCCCCTGA) (LTG core: AA, RTG core: AA)", "recombinant barcode read abundance (log10)": 0.133},
      {"sequence": "ATGTCCCATTGGGTTCTAACCTGTTGCTCAT [ATGTCCCCTGA_LTGcore_AT_RTGcore_AT] (site ATGTCCCCTGA) (LTG core: AT, RTG core: AT)", "recombinant barcode read abundance (log10)": 0.0551},
      {"sequence": "ATGTCCCCATGGGTTCTAACCTGTTGCTCTG [ATGTCCCCTGA_LTGcore_CA_RTGcore_CA] (site ATGTCCCCTGA) (LTG core: CA, RTG core: CA)", "recombinant barcode read abundance (log10)": 0.0134},
      {"sequence": "ATGTCCCCCTGGGTTCTAACCTGTTGCTCAG [ATGTCCCCTGA_LTGcore_CC_RTGcore_CT] (site ATGTCCCCTGA) (LTG core: CC, RTG core: CT)", "recombinant barcode read abundance (log10)": 0.137},
      {"sequence": "ATGTCCCCCTGGGTTCTAACCTGTTGCTCGG [ATGTCCCCTGA_LTGcore_CC_RTGcore_CC] (site ATGTCCCCTGA) (LTG core: CC, RTG core: CC)", "recombinant barcode read abundance (log10)": 0.0529},
      {"sequence": "ATGTCCCCGTGGGTTCTAACCTGTTGCTCAG [ATGTCCCCTGA_LTGcore_CG_RTGcore_CT] (site ATGTCCCCTGA) (LTG core: CG, RTG core: CT)", "recombinant barcode read abundance (log10)": 0.0411},
      {"sequence": "ATGTCCCCTTGGGTTCTAACCTGTTGCTCAT [ATGTCCCCTGA_LTGcore_CT_RTGcore_AT] (site ATGTCCCCTGA) (LTG core: CT, RTG core: AT)", "recombinant barcode read abundance (log10)": 0.0302},
      {"sequence": "ATGTCCCCTTGGGTTCTAACCTGTTGCTCGT [ATGTCCCCTGA_LTGcore_CT_RTGcore_AC] (site ATGTCCCCTGA) (LTG core: CT, RTG core: AC)", "recombinant barcode read abundance (log10)": 0.161},
      {"sequence": "ATGTCCCGTTGGGTTCTAACCTGTTGCTCAG [ATGTCCCCTGA_LTGcore_GT_RTGcore_CT] (site ATGTCCCCTGA) (LTG core: GT, RTG core: CT)", "recombinant barcode read abundance (log10)": 0.0848},
      {"sequence": "ATGTCCCTCTGGGTTCTAACCTGTTGCTCGA [ATGTCCCCTGA_LTGcore_TC_RTGcore_TC] (site ATGTCCCCTGA) (LTG core: TC, RTG core: TC)", "recombinant barcode read abundance (log10)": 0.122},
      {"sequence": "ATGTCCCTTTGGGTTCTAACCTGTTGCTCAG [ATGTCCCCTGA_LTGcore_TT_RTGcore_CT] (site ATGTCCCCTGA) (LTG core: TT, RTG core: CT)", "recombinant barcode read abundance (log10)": 0.0884},
      {"sequence": "CATATTAAATGGGTTCTAACCTGTTGCCTAG [CATATTACTAG_LTGcore_AA_RTGcore_CT] (site CATATTACTAG) (LTG core: AA, RTG core: CT)", "recombinant barcode read abundance (log10)": 0.0356}
    ]}
  ]
}
